Data reported in patent US7217723B2, “Heterocyclic compound having oxime group” (Eisai Co., Ltd., priority 2004, dated 2007).

Tested on: STAT6 activation
Assay: STAT6 activation inhibition test (IL-4-induced alkaline phosphatase STAT6 reporter gene assay)
Type: cell-based, human
Conditions: concentration giving 50% suppression of alkaline phosphatase activity induced by IL-4 (1 ng/mL), 16 hours, 293 cells stably expressing STAT6 gene and STAT6 reporter gene
Method: The inhibitory activity on STAT6 activation of the compound according to present invention was evaluated according to the following test.
1) Construction of the STAT6 Reporter Gene
The oligonucleotide of SEQ ID: 1 resuting from three STAT6 binding regions of the human immunoglobulin germline ε gene promoter linked togeter, and the complementary strand thereof were mixed, and after thermal denaturation and annealing, the 5′ and the 3′ ends were respectively cut with the restriction enzymes Kpn I (TaKaRa Shuzo Code No. 1068A) and Xba I (TaKaRa ShuzoCode No. 1093A), and the resulting fragment was cloned into the Kpn I/Xba I site of the pUG-BGH-PLAP vector (described in Molecular Pharmacology, 49: 860–873 1996). In addition, the TK promoter region of the herpesvirus for inducing general transcription factors was cloned into the Xba I/Hind III (TaKaRa ShuzoCode No. 1060A) site of the pUG-BGH-PLAP vector. Then, to collect a stable expression cell strain, the neomycin resistance gene, that is a PGK-neo expression cassette, was incorporated into the Sal I (TaKaRa Shuzo, Code No. 1080A) site of this vector. Cloning of the TK promoter and the PGK-neo expression cassette was carried out according to Molecular Pharmacology, 49: 860–873 1996.
2) Construction of the STAT6 Expression Vector
Using the oligonucleotide of SEQ ID: 2 containing the initiation codon of the STAT6 gene and the oligonucleotide of SEQ ID: 3 containing the stop codon, Total RNA was prepared from human peripheral blood cells with the RNeasy Mini kit (OIAGEN, Code No. 74104). Thereafter, a reverse transcription reaction was carried out with the Takara RNA LA PCR kit (TaKaRa Shuzo, Code No. RR012A) to prepare cDNA, and using the primers of SEQ ID: 2 and 3, a PCR reaction was carried out, to amplify the STAT6 gene.
PCR product was digested with EcoR I (TaKaRa Shuzo, Code No. 1040A) and Xho I (TaKaRa Shuzo, 1094A), thereafter, the digested fragment was isolated on an agarose gel. The isolated fragment was incorporated into the vector fragment derived from the EcoR I/Xho I digestion of the pcDNA3.1 (+) (invtrogen, Code No. U790-20) vector.
3) Transformation and Preparation of a Stable Expression Cell Strain
In a Falcon 6-well plate for tissue culture (Becton Dickinson, Code No. 35-3046), 3.0×10^5 of 293 cells derived from human embryo kidney (American Type Culture Collection) were distributed and cultured overnight. The STAT6 reporter gene (1.5 μg), the STAT6 gene (1.5 μg) that were prepared and lipofectamine (GIBCO BRL, Code No. 18324-012) (20 μL) were mixed in OPTI-MEM culture medium (GIBCO BRL, Code No. 31985-070) (0.3 mL), and allowed to stand at room temperature for 20 minutes. Thereafter, the OPTI-MEM culture medium (1.2 mL) was further added, OPTI-MEM culture medium not containing fetal calf serum was added to washed cells, which were cultured for 2 hours. A culture medium (1.5 mL) containing fetal calf serum was added, and the cells were cultured for 19 more hours. The culture was continued by exchanging the culture medium and adding Geneticin (SIGMA, Code No. G-5013) so as to obtain 1 mg/mL, and cells with drug tolerance were selected. The selected drug tolerant cells were suspended in a culture medium containing 1 mg/mL of Geneticin, and distributed in a 96-well microplate (Becton Dickinson, Code No. 35-3072) so as to obtain 0.5 cells/well to carrry out cloning, and the clones expressing alkaline phosphatase in response to IL-4 were collected.
4) STAT6 Activation Inhibition Test
Cells stably expressing the STAT6 gene and the STAT6 reporter gene, and expressing alkaline phosphatase in response to IL-4 were distributed in a 96-well microplate (Becton Dickinson, Code No. 35-3072) so as to obtain 5000 cells/180 μL/well, and cultured overnight. […]

Compound	IC50 (Homo sapiens, HEK293) [nM]	IC50 [nM]
CN(CCc1cccnc1)S(=O)(=O)c1csc2c1CCC/C2=N/O [Example 7, (7Z)-7-Hydroxyimino-4,5,6,7-tetrahydro-benzo[b]thiophene-3-sulfonic acid methyl-(2-pyridine-3-yl-ethyl)-amide]	4.8	
CN(CCc1ccncc1)S(=O)(=O)c1csc2c1CCC/C2=N/O [Example 9, (7Z)-7-Hydroxyimino-4,5,6,7-tetrahydro-benzo[b]thiophene-3-sulfonic acid methyl-(2-pyridine-4-yl-ethyl)-amide]	0.82	
CN(CCc1ccc(F)cc1[N+](=O)[O-])S(=O)(=O)c1csc2c1CCC/C2=N/O [Example 5, (7Z)-7-Hydroxyimino-4,5,6,7-tetrahydro-benzo[b]thiophene-3-sulfonic acid[2-(4-fluoro-2-nitro-Phenyl)-ethyl]-methyl-amide]		21
C/C(=N/O)c1cc(S(=O)(=O)N(C)CCc2ccc(F)cc2)c(N)s1 [Example 60, 2-Amino-5-[(1Z)-hydroxyimino-ethyl]-thiophene-3-sulfonic acid [2-(4-fluorophenyl)-ethyl]-methyl-amide]		1.6
CN(C[C@H](O)c1ccc(F)cc1)S(=O)(=O)c1csc2c1CCC/C2=N/O [Example 14, (7Z)-N-[(2R)-2-(4-Fluorophenyl)-2-hydroxyethyl]-7-(hydroxyimino)-N-methyl-4,5,6,7-tetrahydro-1-benzothiophene-3-sulfonamide]	30	
C/C(=N/O)c1cc(S(=O)(=O)N(C)CC(O)c2ccc(F)cc2)c(N)s1 (centres unmarked) [Example 52, 2-Amino-5-[(1Z)-hydroxyimino-ethyl]-thiophene-3-sulfonic acid [2-(4-fluorophenyl)-2-hydroxyethyl]-methyl-amide]		7.9
CCNC(=O)O/N=C1/CCCc2c(S(=O)(=O)N(C)CC(O)c3ccc(F)cc3)csc21 (centres unmarked) [Example 83, (7z)-7-({[(Ethylamino)carbonyl]oxo}imino)-3-{[[2-(4-fluorophenyl)-2-hydroxyethyl](methyl)amino]sulfonyl}-4,5,6,7-tetrahydro-1-benzothiophene]		34
C/C(=N/O)c1cc(S(=O)(=O)N(C)CC(O)c2ccc(F)cc2)cs1 (centres unmarked) [Example 44]		0.63
CN(CCc1ccc(F)cc1)S(=O)(=O)c1csc2c1CCC/C2=N/O [Example 3, (7Z)-7-Hydroxyimino-4,5,6,7-tetrahydro-benzo[b]thiophene-3-sulfonic acid[2-(4-fluorophenyl)-ethyl]-methyl-amide]		0.6
CN(CC(O)c1ccc(F)cc1)S(=O)(=O)c1csc2c1CCC/C2=N/OC(=O)C(C)(C)C (centres unmarked) [Example 88, (7Z)-7-{[(2,2-Dimethylpropanoyl)oxy]imino}-N-[2-(4-fluorophenyl)-2-hydroxyethyl]-N-methyl-4,5,6,7-tetrahydro-1-benzothiophene-3-sulfonamide]	0.42	
CC(C)C(=NO)c1cc(S(=O)(=O)N(C)CCc2ccc(F)cc2)cs1 [Example 47, 5-(1-Hydroxyimino-2-methylpropyl)thiophene-3-sulfonic acid [2-(4-fluorophenyl)-ethyl]-methyl-amide]	12	
CN(CCc1ccc(F)cc1)C(=O)c1csc2c1CCC/C2=N/O [Example 124, (7Z)-7-Hydroxyimino-4,5,6,7-tetrahydrobenzo[b]thiophene-3-carboxylic acid[2-(4-fluorophenyl)ethyl]-methyl-amide]		0.15
CC1CCc2c(S(=O)(=O)N(C)CC(O)c3ccc(F)cc3)csc2/C1=N\O (centres unmarked) [Example 32, (7Z)-7-Hydroxyimino-6-methyl-4,5,6,7-tetrahydrobenzo[b]-thiophene-3-sulfonic acid[(2-(4-fluorophenyl)-2-hydroxyethyl)]-methyl-amide]		10.1
CC(C)C(=NO)c1cc(S(=O)(=O)N(C)CC(O)c2ccc(F)cc2)cs1 (centres unmarked) [Example 48, 5-(1-Hydroxyimino-2-methylpropyl)thiophene-3-sulfonic acid [2-(4-fluorophenyl)-2-hydroxyethyl]-methyl-amide]	30	
CCOc1ccc(NC(=O)O/N=C2/CCCc3c(S(=O)(=O)N(C)CC(O)c4ccc(F)cc4)csc32)cc1 (centres unmarked) [Example 73, (7Z)-7-({[(4-Ethoxyanilino)carbonyl]oxo}imino)-3-{[[2-(4-fluoro-phenyl)-2-hydroxyethyl](methyl)amino]sulfonyl}-4,5,6,7-tetrahydro-1-benzothiophene]		0.9
C/C(=N/O)c1ccc(S(=O)(=O)N(C)CCc2ccc(F)cc2)s1 [Example 37]		30
C/C(=N\O)c1cc(S(=O)(=O)N(C)CCc2ccc(F)cc2)c(N)s1 [Example 61, 2-Amino-5-[(1E)-hydroxyimino-ethyl]-thiophene-3-sulfonic acid [2-(4-fluorophenyl)-ethyl]-methyl-amide]		66.7
CN(CC(NC(N)=O)c1ccc(F)cc1)S(=O)(=O)c1csc2c1CCCC2=NO (centres unmarked) [Example 25, 7-Hydroxyimino-4,5,6,7-tetrahydrobenzo[b]thiophene-3-sulfonic acid [(2-(4-fluorophenyl)-2-ureideethyl)]-methyl-amide]		13
CN(CC(O)c1ccc(F)cc1)S(=O)(=O)c1csc2c1CCC/C2=N/O (centres unmarked) [Example 1, (7Z)-7-Hydroxyimino-4,5,6,7-tetrahydro-benzo[b]thiophene-3-sulfonic acid[2-(4-fluorophenyl)-2-hydroxyethyl]-methyl-amide]		1.13
CC(C)/C(=N/O)c1cc(S(=O)(=O)N(C)CCc2ccc(F)cc2)c(N)s1 [Example 63, 2-Amino-5-[(1Z)-hydroxyimino-2-methylpropyl]thiophene-3-sulfonic acid[2-(4-fluorophenyl)ethyl]-methyl-amide]		40
CN(CC(O)c1ccc(F)cc1)S(=O)(=O)c1c(N)sc2c1CCC/C2=N\O (centres unmarked) [Example 27, (7E)-2-Amino-7-hydroxyimino-4,5,6,7-tetrahydro-benzo[b]-thiophene-3-sulfonic acid [2-(4-fluorophenyl)-2-hydroxyethyl]-methyl-amide]	11	
CC1CCc2c(S(=O)(=O)N(C)CCc3ccc(F)cc3)csc2/C1=N\O (centres unmarked) [Example 31, (7Z)-7-Hydroxyimino-6-methyl-4,5,6,7-tetrahydrobenzo[b]-thiophene-3-sulfonic acid[(2-(4-fluorophenyl)ethyl)]-methyl-amide]		4.3
CN(CCc1ccc(F)cc1)S(=O)(=O)c1csc2c1CCC(O)/C2=N/O (centres unmarked) [Example 33, (7Z)-6-Hydroxy-7-hydroxyimino-4,5,6,7-tetrahydrobenzo[b]-thiophene-3-sulfonic acid[(2-(4-fluorophenyl)ethyl)]-methyl-amide]		11
CN(CCc1ccccc1)C(=O)c1csc2c1CCC/C2=N/O [Example 110, (7Z)-7-Hydroxyimino-4,5,6,7-tetrahydrobenzo[b]thiophene-3-carboxylic acid methylphenethyl amide]	0.32	
CN(CCc1ccc(F)c([N+](=O)[O-])c1)S(=O)(=O)c1csc2c1CCC/C2=N/O [Example 6, (7Z)-7-Hydroxyimino-4,5,6,7-tetrahydro-benzo[b]thiophene-3-sulfonic acid[2-(4-fluoro-3-nitro-phenyl)-ethyl]-methyl-amide]		4.9
CN(CC(O)c1ccc(F)cc1F)S(=O)(=O)c1csc2c1CCC/C2=N/O (centres unmarked) [Example 17, (7Z)-7-Hydroxyimino-4,5,6,7-tetrahydro-benzo[b]thiophene-3-sulfonic acid[2-(2,4-difluorophenyl)-2-hydroxyethyl]-methyl-amide]		15.4
